From ChEMBL document CHEMBL1614632, “Trend analysis of a database of intravenous pharmacokinetic parameters in humans for 670 drug compounds” (Drug Metab Dispos, 2008) come the findings set out here.

A short description of data set [1]: clinical. The settings on record: human, in vivo, iv, Vdss.
Data set [2] in a line: clinical. The note with it: human, in vivo, iv, CL.
The nature of data set [3]: clinical. The settings on record: human, in vivo, iv.
The nature of data set [4]: clinical. The note with it: human, in vivo, iv, t1/2.

The structures appear in SMILES notation.

Molecule `N=C(N)c1ccc(CNC(=O)[C@@H]2CCN2C(=O)[C@H](NCC(=O)O)C2CCCCC2)cc1` showed a Vd in the data set “clinical [1]” of 0.23 L/kg. Also, the clearance in the data set “clinical [2]” was found to be 1.9 mL/min/kg. In addition, the MRT in the data set “clinical [3]” stood at 2 h. In addition, in “clinical [4]”, the half-life is 1.6 h.

Consider `CC1(C)S[C@@H]2[C@H](NC(=O)COc3ccccc3)C(=O)N2[C@H]1C(=O)O` [PENICILLIN V], for which the Vd in the data set “clinical [1]” amounted to 0.41 L/kg. The clearance in “clinical [2]” was 6.8 mL/min/kg. Also, the MRT in the data set “clinical [3]” stood at 1 h. Also, in the data set “clinical [4]”, the half-life is 0.84 h.

For `Cc1cc(-n2cccc2)c(S(C)(=O)=O)cc1C(=O)NC(=N)N` [ENIPORIDE], the volume of distribution (Vd) in the data set “clinical [1]” came out at 1.1 L/kg. In addition, the clearance in the data set “clinical [2]” is 8.2 mL/min/kg. The molecule also had an MRT in “clinical [3]” of 2.3 h. Moreover, the half-life in “clinical [4]” is 2.2 h.

Regarding `CNCCC=C1c2ccccc2CCc2ccccc21` [NORTRIPTYLINE], the Vd in the data set “clinical [1]” worked out at 22 L/kg. Also, the clearance in the data set “clinical [2]” is 10 mL/min/kg. This molecule displayed an MRT in “clinical [3]” of 37 h. For the same molecule, in the data set “clinical [4]”, the half-life was 30 h.

On to `C[C@]12CC[C@@H]3c4ccc(OC(=O)N(CCCl)CCCl)cc4CC[C@H]3[C@@H]1CC[C@@H]2OP(=O)(O)O` [ESTRAMUSTINE PHOSPHATE], for which the Vd in “clinical [1]” was found to be 0.12 L/kg. The clearance in the data set “clinical [2]” was determined as 0.94 mL/min/kg. The molecule further registered an MRT in “clinical [3]” of 2.1 h. This molecule showed a half-life in the data set “clinical [4]” of 2.4 h.

With `COc1c(N2CCNC(C)C2)c(F)cc2c(=O)c(C(=O)O)cn(C3CC3)c12` (centres undefined) [GATIFLOXACIN], the Vd in the data set “clinical [1]” worked out at 1.7 L/kg. Besides, the clearance in “clinical [2]” was 2.8 mL/min/kg. The MRT in the data set “clinical [3]” is 11 h. Moreover, the half-life in “clinical [4]” is 10 h.

Molecule `NC[C@H]1CC[C@H](C(=O)O)CC1` [TRANEXAMIC ACID] showed a distribution volume (Vd) in “clinical [1]” of 0.38 L/kg. Besides, in “clinical [2]”, the clearance was 2.4 mL/min/kg. The molecule further came in with an MRT in “clinical [3]” of 2.6 h. This molecule had a half-life in “clinical [4]” of 2.3 h.

In “clinical [1]”, `COc1cc2c(N)nc(N3CCN(C(=O)OCC(C)(C)O)CC3)nc2c(OC)c1OC` [TRIMAZOSIN] yielded a Vd of 0.18 L/kg. In “clinical [2]”, this molecule returned a clearance of 0.96 mL/min/kg. In “clinical [3]”, this molecule yielded an MRT of 3.1 h. In addition, the half-life in “clinical [4]” is 3.1 h.

In turn, `Cc1cccc(C)c1NC(=O)C(C)N` (centres undefined) [TOCAINIDE] had a Vd in “clinical [1]” of 1.8 L/kg. The clearance in the data set “clinical [2]” came out at 2.2 mL/min/kg. Also, the MRT in the data set “clinical [3]” was 14 h. This molecule also showed a half-life in “clinical [4]” of 12 h.

`Cc1c(OCC(F)(F)F)ccnc1C[S+]([O-])c1nc2ccccc2[nH]1` (centres undefined) [LANSOPRAZOLE] had a Vd in “clinical [1]” of 0.28 L/kg. For the same molecule, in “clinical [2]”, the clearance is 4.4 mL/min/kg. The same molecule registered an MRT in “clinical [3]” of 1.1 h. The molecule also had a half-life in “clinical [4]” of 1 h.

In “clinical [1]”, `CC[N+](C)(C)c1cccc(O)c1.[Br-]` [EDROPHONIUM BROMIDE] had a Vd of 1.1 L/kg. The same molecule returned a clearance in “clinical [2]” of 9.6 mL/min/kg. The same molecule had an MRT in “clinical [3]” of 1.9 h. Also, the half-life in “clinical [4]” was 1.8 h.

In the case of `CN(C(=O)c1c(O)c2ccccc2n(C)c1=O)c1ccccc1` [ROQUINIMEX], the Vd in “clinical [1]” came out at 0.21 L/kg. In “clinical [2]”, this molecule registered a clearance of 0.082 mL/min/kg. Besides, in “clinical [3]”, the mean residence time MRT amounted to 43 h. Moreover, the half-life in “clinical [4]” is 31 h.

For `CC(C)c1nc(N(C)S(C)(=O)=O)nc(-c2ccc(F)cc2)c1/C=C/[C@@H](O)C[C@@H](O)CC(=O)O` [ROSUVASTATIN], in “clinical [1]”, the volume of distribution (Vd) turned out to be 1.7 L/kg. In “clinical [2]”, this molecule came in with a clearance of 11 mL/min/kg. Moreover, the mean residence time MRT in the data set “clinical [3]” came out at 2.6 h. Further, the half-life in “clinical [4]” is 2 h.

For `COC(=O)C1=C(C)NC(C)=C(C(=O)OCCCN2CCC(c3ccccc3)(c3ccccc3)CC2)[C@@H]1c1cccc([N+](=O)[O-])c1` [DEXNIGULDIPINE], the Vd in the data set “clinical [1]” turned out to be 8.4 L/kg. For the same molecule, the clearance in the data set “clinical [2]” turned out to be 9.3 mL/min/kg. The molecule further yielded an MRT in “clinical [3]” of 15 h. This molecule also gave a half-life in the data set “clinical [4]” of 22 h.

In “clinical [1]”, `N[C@H](C(=O)O)[C@@H]1CC(Cl)=NO1` [ACIVICIN] came in with a Vd of 0.5 L/kg. The molecule also gave a clearance in the data set “clinical [2]” of 0.69 mL/min/kg. Moreover, in the data set “clinical [3]”, the MRT worked out at 12 h. In “clinical [4]”, this molecule gave a half-life of 9.9 h.

For the molecule `Oc1ccc2c3c1O[C@H]1[C@@H](O)CC[C@@]4(O)[C@@H](C2)N(CC2CCC2)CC[C@]314` [NALBUPHINE], the Vd in the data set “clinical [1]” came out at 4.6 L/kg. Further, the clearance in “clinical [2]” came out at 22 mL/min/kg. This molecule registered an MRT in the data set “clinical [3]” of 3.5 h. The molecule also gave a half-life in the data set “clinical [4]” of 3.7 h.
